# pKi: −log10 of the molar value.
# Key:
# [1] = system: AMPA-induced currents in rat mPFC; assay: AMPA-induced currents in rat mPFC slices, whole-cell patch clamp; assay type: cell-based
# Description: Combined administration of the antipsychotic, olanzapine, and the SSRI, fluoxetine, similarly induces rapid antidepressant activity in humans and animals (Tohen et al., 2010); likewise, combined application of olanzapine and fluoxetine is required to induce AMPA receptor currents in vitro.
# In contrast, the antipsychotic drug olanzapine, is found to enhance AMPA-induced currents only in the presence of the SSRI fluoxetine. 3 nM olanzapine alone results in about 100% of the AMPA-induced current of the control, while 100 nM fluoxetine results in about 90% of the AMPA-induced current of the control. However, the combination of 3 nM olanzapine and 100 nM fluoxetine is found to synergistically result in almost 150% of the AMPA-induced current of control. When SCH 23390 (1 μM) is combined with the olanzapine and fluoxetine, however, the AMPA-induced current returns to approximately 100% of the control level.
# [2] = system: NMDA-induced currents in rat mPFC; assay: NMDA-induced currents in rat mPFC slices, whole-cell patch clamp; assay type: cell-based
# Mu opiate receptor = Mu opiate receptor (Homo sapiens (Human), UniProt P35372); assay: biochemical
# [3] = Clinical studies in patients with acute exacerbated schizophrenia; assay type: in vivo, human; conditions: 60 mg P.O. once daily up to 28 days
# Text: Social avoidance can be a critical and debilitating symptom in patients suffering from anxiety disorders, especially social anxiety disorder, as well as in patients suffering from traumatic anxiety disorders. Social avoidance is often one of the key determinants of whether a person with a severe anxiety disorder is capable of maintaining familial relationships or employment relationships. […] Negative symptoms of schizophrenia can be divided into two categories: emotional experience (e.g., emotional withdrawal, passive social withdrawal, active social avoidance) and emotional expression (e.g., blunted effect, poor rapport, lack of spontaneity, and motor retardation). […] These are the symptoms that are most highly correlated with interpersonal functioning.
# mTORC1 signaling pathway = assay: Phosphorylation of mTOR pathway proteins in rat PFC; assay type: in vivo; conditions: for mTOR phosphorylation (Serine 2448) / increase in phosphorylation of AKT at thr308 / p70s6K phosphorylation (Threonine 389): rat PFC, 30 mg/kg ketamine or 3 mg/kg Formula A i.p.; for increase in phosphorylation of AKT at thr308: both 1 hour and 24 hours post-administration; for p70s6K phosphorylation (Threonine 389): over 24 hours
# 5-HT2 receptor = assay: DOI-induced head twitch model in mice; assay type: in vivo; conditions: compound orally 0.5 hr before DOI
# [4] = 40-minute infusion, total dose 0.5 mg/kg; after 24 hours; cited from earlier work
compound,measurement,setting,value
Cc1cc2c(s1)Nc1ccccc1N=C2N1CCN(C)CC1 [olanzapine],AMPA-induced current of the control,[1]; 3 nM olanzapine alone,about 100%
"CN1CCN2c3c(cccc31)[C@@H]1CN(CCCC(=O)c3ccc(F)cc3)CC[C@@H]12 [Formula A, lumateperone]",NMDA-induced currents compared to control,[2]; 30 nM,~150%
same,NMDA-induced currents compared to control,[2]; Formula A 30 nM combined with SCH 23390 (1 μM),about 90 % of control
same,pKi,Mu opiate receptor,< 5.00
same,symptoms of emotional experience compared to placebo,[3],significant and unexpected improvement
same,AMPA-induced currents compared to control,"[1]; Formula A 30 nM, alone and with SCH 23390 (1 μM), rat mPFC",Substantially the same results
same,activation of the mTORC1 signaling pathway in mPFC,"mTORC1 signaling pathway; adult rats, 1 to 8 mg/kg i.p., 60 min, 90 min or 24 hours",rapidly activates the mTORC1 signaling pathway
same,mTOR phosphorylation (Serine 2448),mTORC1 signaling pathway,Neither ketamine nor the Compound of Formula A results in a change
same,increase in phosphorylation of AKT at thr308,mTORC1 signaling pathway,~50%
same,p70s6K phosphorylation (Threonine 389),mTORC1 signaling pathway,progressively increases
CNCCC(Oc1ccc(C(F)(F)F)cc1)c1ccccc1 (stereo not shown) [fluoxetine],AMPA-induced current of the control,[1]; 100 nM fluoxetine,about 90%
"O=C1CN2c3c(cccc3[C@@H]3CN(CCCOc4ccc(F)cc4)CC[C@@H]32)N1 [Example 1, (6bR,10aS)-8-(3-(4-fluorophenoxy)propyl)-6b,7,8,9,10,10a-hexahydro-1H-pyrido[3′,4′:4,5]pyrrolo[1,2,3-de]quinoxalin-2(3H)-one]",EC50 for reducing DOI-induced head twitches,5-HT2 receptor,"0.44 mg/kg, p.o."
CNC1(c2ccccc2Cl)CCCCC1=O (stereo not shown) [ketamine],ratings on the Hamilton Depression Rating Scale (HDRS) compared to placebo,[4],significantly improved ratings
same,mTOR phosphorylation (Serine 2448),mTORC1 signaling pathway,Neither ketamine nor the Compound of Formula A results in a change
same,increase in phosphorylation of AKT at thr308,mTORC1 signaling pathway,~50%
same,p70s6K phosphorylation (Threonine 389),mTORC1 signaling pathway,transiently increase

# Source: US12023331B2 (priority 2018, dated 2024)
